Data from patent EP0187956A2, “Pharmaceutical composition for the treatment of defects of the gastrointestinal mucous membrane” (BOEHRINGER INGELHEIM KG, priority 1984, dated 1986).

Key:
[1] = tested on: Durch Ethanol verursachte Magengeschwüre; assay: Ethanol-induced gastric ulcers in fasted female rats; format: in vivo, Ratten; conditions: for ED50: Rattus norvegicus, po, 30 min before 0,7 ml absolute ethanol, dose protecting 50 % of the animals
Method: (§1) Die mucoprotektive Wirkung auf den Gastrointestinaltrakt verschiedener Verbindungen wurde im Vergleich zu dem bekannten Antiulcusmittel Carbenoxolone an weiblichen Ratten getestet, die für 24 Stunden vor Beginn des Tests fasteten. Diese Tiere wurden den folgenden Tests unterworfen:
(§2) Gruppen von 10 Ratten erhielten abgestufte Dosen der zu untersuchenden Verbindungen oral mittels Schlundsonde; die Verbindungen waren in 0,2 % Methocel suspendiert. Nach 30 Minuten erhielten die Tiere 0,7 ml absolutes Ethanol. 30 Minuten später wurden die Tiere getötet, der Magen entfernt, entlang der großen Curvatur geöffnet und von einem neutralen Beobachter untersucht. Einem Magengeschwür entsprechende Schädigungen wurden auch nach ihrer Schwere beurteilt, aber ihre Häufigkeit (in %) diente als Basis für die Berechnung des prozentualen Schutzes. Die ED50 ist diejenige Dosis einer Verbindung, die 50 % der Tiere schützt; sie wird ausgedrückt durch die Relation Schutz:Dosis.

[2] = tested on: Durch Natronlauge verursachte Magengeschwüre; assay: Sodium hydroxide (0,2 N)-induced gastric ulcers in fasted female rats; format: in vivo, Ratten; conditions: for ED50: Rattus norvegicus, po, 1 h, p.o., 0,2 N sodium hydroxide as ulcerogen, animals killed 60 min after it
Method: as §1, §2
Der Test verlief in gleicher Weise wie der unter 1. beschriebene. Anstelle von Ethanol wurde 0,2 N Natronlauge als Ulcus verursachendes Agens gewählt und die Tiere 60 Minuten nach dessen Gabe getötet. Die ED50 wurde, wie oben angegeben, bestimmt.

[3] = tested on: Durch Ethanol verursachte Magengeschwüre bei Ratten, die mit Indomethacin und Acetylsalicylsäure vorbehandelt worden waren; assay: Ethanol-induced gastric ulcers in rats pretreated with indomethacin or acetylsalicylic acid (suppression of prostaglandin synthesis); format: in vivo; conditions: 30 mg/kg p.o.
Method: as §1, §2
Es ist bekannt, daß Prostaglandine einen cytoprotektiven Effekt haben. Weiter ist bekannt, daß Prostaglandine eine antiulcerogene Wirkung haben. Durch eine Hemmung der Prostaglandin-Biosynthese, z.B. durch Acetylsalicylsäure oder Indomethacin, wird die antiulceregene Wirkung unterdrückt.
Gruppen von je 10 Ratten wurden entweder mit Indomethacin (3 mg/kg s.c.) oder Acetylsalicylsäure (10 mg/kg) vorbehandelt und nach 30 bis 60 Minuten die Testsubstanz verabreicht. Dann wurde ein durch Ethanol verursachtes Magengeschwür gesetzt und, wie unter 1. beschrieben, weitergearbeitet.

CC1(C)[C@@H](OC(=O)CCC(=O)O)CC[C@]2(C)[C@H]3C(=O)C=C4[C@@H]5C[C@@](C)(C(=O)O)CC[C@]5(C)CC[C@@]4(C)[C@]3(C)CC[C@@H]12 [Carbenoxolone, reference compound]
% Schutz (% Tier ohne Magengeschwüre) ([1]; 30 mg/kg p.o.): 10% | % Schutz (% Tier ohne Magengeschwüre) ([1]; 100 mg/kg p.o.): 60% | % Schutz (% Tier ohne Magengeschwüre) ([1]; 300 mg/kg p.o.): 90% | ED50 [1]: 89 mg/kg | %Schutz-wirkung ([2]; 100 mg/kg p.o.): 33% | %Schutz-wirkung ([2]; 170 mg/kg p.o.): 70% | %Schutz-wirkung ([2]; 300 mg/kg p.o.): 80% | ED50 [2]: 132 mg/kg

C[C@@H](CSC(C[N+](=O)[O-])c1ccccc1)C(=O)N1CCC[C@H]1C(=O)O (stereo partly drawn) [D, 1-[3-(1-Phenyl-2-nitro-äthylthio)-2-R-methylpropanoyl]-L-prolin]
ED50 [1]: 0.6 mg/kg

CC(CS)C(=O)N1CCc2sccc2C1C(=O)O [C, 1-(3-Mercapto-2-(R,S)-methylpropanoyl)-4,5,6,7-tetrahydro-thieno-[3,2-c]pyridin-4-(R,S)-carbonsäure]
ED50 [1]: 6 mg/kg

CC(CS)C(=O)N1CCC[C@@H]1C(=O)O (stereo partly drawn) [Captopril, D-2-Methyl-3-mercaptopropanoyl-L-prolin, reference compound]
% Schutz (% Tier ohne Magengeschwüre) ([1]; 30 mg/kg p.o.): 5% | % Schutz (% Tier ohne Magengeschwüre) ([1]; 55 mg/kg p.o.): 30% | % Schutz (% Tier ohne Magengeschwüre) ([1]; 100 mg/kg p.o.): 70% | ED50 [1]: 74.4 mg/kg

C[C@H](CS)C(=O)N1CCC[C@H]1C(=O)OCOC(=O)C(C)(C)C [G, 1-(3-Mercapto-Z-D-methylpropanoyl)-L-prolin-pivaloyloxymethylester]
% Schutz (% Tier ohne Magengeschwüre) ([1]; 3 mg/kg p.o.): 30% | % Schutz (% Tier ohne Magengeschwüre) ([1]; 10 mg/kg p.o.): 50% | % Schutz (% Tier ohne Magengeschwüre) ([1]; 30 mg/kg p.o.): 40% | ED50 [1]: 4 mg/kg | %Schutz-wirkung ([2]; 3 mg/kg p.o.): 10% | %Schutz-wirkung ([2]; 10 mg/kg p.o.): 39% | %Schutz-wirkung ([2]; 17 mg/kg p.o.): 70% | %Schutz-wirkung ([2]; 30 mg/kg p.o.): 80% | ED50 [2]: 11.7 mg/kg | % Schutzwirkung ([3]; pretreatment: Acetylsalicylsäure 10 mg/kg p.o., 60 min before ethanol): 10% | % Schutzwirkung ([3]; pretreatment: Indomethacin 3 mg/kg s.c., 30 min before ethanol): 40% | % Schutzwirkung ([3]; pretreatment: saline (control)): 100%

CC(=O)SC[C@@H](C)C(=O)N1CCc2sccc2C1C(=O)O (stereo partly shown) [F]
ED50 [1]: 3 mg/kg

CCOC(=O)[C@H](CCc1ccccc1)N[C@@H](C)C(=O)N1CCc2ccsc2[C@H]1C(=O)O [E, N-[N-1-(S-Ethoxycarbonyl-3-phenylpropyl)-2-S-alanyl]-4,5,6,7-tetrahydro-thieno[2,3-c]pyridin-7-R-carbonsäure]
ED50 [1]: 12 mg/kg
